Measurements as given in patent US20040063662A1, “Selenophene anti-tumor agents” (priority 1996, published 2004).

Experiments:
OVCAR-4 = test: NCI human tumor cell panel: OVCAR-4 (Ovarian Cancer); format: cell-based; details: OVCAR-4, Ovarian Cancer
HS 578T = test: NCI human tumor cell panel: HS 578T (Breast Cancer); format: cell-based; details: Breast Cancer
OVCAR-5 = test: NCI human tumor cell panel: OVCAR-5 (Ovarian Cancer); format: cell-based; details: OVCAR-5, Ovarian Cancer
SK-MEL-28 = test: NCI human tumor cell panel: SK-MEL-28 (Melanoma); format: cell-based; details: SK-MEL-28, Melanoma
HCC-2998 = test: NCI human tumor cell panel: HCC-2998 (Colon Cancer); format: cell-based; details: HCC-2998, Colon Cancer
MDA-N = test: NCI human tumor cell panel: MDA-N (Breast Cancer); format: cell-based; details: Breast Cancer
MDA-MB-435 = test: NCI human tumor cell panel: MDA-MB-435 (Breast Cancer); format: cell-based; details: MDA-MB-435, Breast Cancer
SNB-19 = test: NCI human tumor cell panel: SNB-19 (CNS Cancer); format: cell-based; details: SNB-19, CNS Cancer
U251 = test: NCI human tumor cell panel: U251 (CNS Cancer); format: cell-based; details: U-251, U251, CNS Cancer
NCI-H460 = test: NCI human tumor cell panel: NCI-H460 (Non-Small Cell Lung Cancer); format: cell-based; details: NCI-H460, Non-Small Cell Lung Cancer
BT-549 = test: NCI human tumor cell panel: BT-549 (Breast Cancer); format: cell-based; details: BT-549, Breast Cancer
HCT-15 = test: NCI human tumor cell panel: HCT-15 (Colon Cancer); format: cell-based; details: HCT-15, Colon Cancer
NCI-H23 = test: NCI human tumor cell panel: NCI-H23 (Non-Small Cell Lung Cancer); format: cell-based; details: NCI-H23, Non-Small Cell Lung Cancer
NCI-H522 = test: NCI human tumor cell panel: NCI-H522 (Non-Small Cell Lung Cancer)
SNB-75 = test: NCI human tumor cell panel: SNB-75 (CNS Cancer); format: cell-based; details: SNB-75, CNS Cancer
NCI-H322M = test: cells; format: cell-based; details: Homo sapiens, Non-Small Cell Lung Cancer
EKVX = test: NCI human tumor cell panel: EKVX (Non-Small Cell Lung Cancer); format: cell-based; details: Non-Small Cell Lung Cancer
MCF7/ADR-RES = test: NCI human tumor cell panel: MCF7/ADR-RES (Breast Cancer); format: cell-based; details: Breast Cancer
M14 = test: NCI human tumor cell panel: M14 (Melanoma); format: cell-based; details: M14, Melanoma
LOX IMVI = test: NCI human tumor cell panel: LOX IMVI (Melanoma); format: cell-based; details: Melanoma
HOP-92 = test: NCI human tumor cell panel: HOP-92 (Non-Small Cell Lung Cancer)
HT29 = test: NCI human tumor cell panel: HT29 (Colon Cancer); format: cell-based; details: HT-29, HT29, Colon Cancer
IGROV1 = test: NCI human tumor cell panel: IGROV1 (Ovarian Cancer); format: cell-based; details: IGROV-1, IGROV1, Ovarian Cancer
SR = test: NCI human tumor cell panel: SR (Leukemia); format: cell-based; details: Leukemia
TK-10 = test: NCI human tumor cell panel: TK-10 (Renal Cancer); format: cell-based; details: TK-10, Renal Cancer
SK-MEL-2 = test: NCI human tumor cell panel: SK-MEL-2 (Melanoma); format: cell-based; details: SK-MEL-2, Melanoma
786-0 = test: NCI human tumor cell panel: 786-0 (Renal Cancer); format: cell-based; details: 786-0, Renal Cancer
HOP-62 = test: NCI human tumor cell panel: HOP-62 (Non-Small Cell Lung Cancer); format: cell-based; details: HOP-62, Non-Small Cell Lung Cancer
UO-31 = test: NCI human tumor cell panel: UO-31 (Renal Cancer); format: cell-based; details: UO-31, Renal Cancer
SF-295 = test: NCI human tumor cell panel: SF-295 (CNS Cancer); format: cell-based; details: SF-295, CNS Cancer
PC-3 = test: NCI human tumor cell panel: PC-3 (Prostate Cancer); format: cell-based; details: PC-3, Prostate Cancer
SF-539 = test: NCI human tumor cell panel: SF-539 (CNS Cancer); format: cell-based; details: SF-539, CNS Cancer
[1] = read-out: Log10 GI50 (converted)
[2] = read-out: Log10 TGI (converted)

O=Cc1ccc(-c2ccc(-c3ccc(C=O)[se]3)[se]2)[se]1 [NSC 675245]
45.7 µM: IC (TGI) (NCI-H522; NCI-H522, read-out: Log10 TGI)
0.813 µM: IC (TGI) (TK-10; [2])
29.5 µM: GI50 (SNB-19; [1])
49 µM: GI50 (SF-295; [1])
87.1 µM: GI50 (HS 578T; [1])
1780 nM: GI50 (NCI-H460; [1])
21.9 µM: GI50 (NCI-H522; NCI-H522, read-out: Log10 GI50 (converted))
25.7 µM: IC (TGI) (IGROV1; [2])
67.6 µM: GI50 (IGROV1; [1]) | GI50 (786-0; [1])
10 µM: GI50 (SNB-75; [1])
776 nM: GI50 (OVCAR-5; [1])
51.3 µM: GI50 (HOP-62; [1])
> 100 µM: IC (TGI) (OVCAR-4; [2]) | IC (TGI) (HS 578T; [2]) | IC (TGI) (OVCAR-5; [2]) | GI50 (SK-MEL-28; [1]) | IC (TGI) (SK-MEL-28; [2]) | IC (TGI) (HCC-2998; [2]) | GI50 (MDA-N; [1]) | IC (TGI) (MDA-N; [2]) | GI50 (MDA-MB-435; [1]) | IC (TGI) (MDA-MB-435; [2]) | IC (TGI) (SNB-19; [2]) | IC (TGI) (U251; [2]) | IC (TGI) (NCI-H460; [2]) | GI50 (BT-549; [1]) | IC (TGI) (BT-549; [2]) | GI50 (HCT-15; [1]) | IC (TGI) (HCT-15; [2]) | GI50 (NCI-H23; [1]) | IC (TGI) (NCI-H23; [2]) | IC (TGI) (SNB-75; [2]) | GI50 (NCI-H322M; [1]) | IC (TGI) (NCI-H322M; [2]) | GI50 (EKVX; [1]) | IC (TGI) (EKVX; [2]) | GI50 (MCF7/ADR-RES; [1]) | IC (TGI) (MCF7/ADR-RES; [2]) | GI50 (M14; [1]) | IC (TGI) (M14; [2]) | GI50 (LOX IMVI; [1]) | IC (TGI) (LOX IMVI; [2]) | GI50 (HOP-92; HOP-92, read-out: Log10 GI50 (converted)) | IC (TGI) (HOP-92; HOP-92, read-out: Log10 TGI) | GI50 (HT29; [1]) | IC (TGI) (HT29; [2]) | GI50 (SR; [1]) | IC (TGI) (SR; [2]) | GI50 (SK-MEL-2; [1]) | IC (TGI) (SK-MEL-2; [2]) | IC (TGI) (786-0; [2]) | IC (TGI) (HOP-62; [2]) | GI50 (UO-31; [1]) | IC (TGI) (UO-31; [2]) | IC (TGI) (SF-295; [2]) | GI50 (PC-3; [1]) | IC (TGI) (PC-3; [2]) | GI50 (SF-539; [1]) | IC (TGI) (SF-539; [2])
4.79 µM: GI50 (HCC-2998; [1])
1050 nM: GI50 (U251; [1])
257 nM: GI50 (TK-10; [1])
2630 nM: GI50 (OVCAR-4; [1])
